# Experimental data taken from patent publication US10260043B2, “Human extensively self-renewing erythroblasts (ESRE)” (UNIVERSITY OF ROCHESTER, priority 2013, dated 2019).
# System: murine ESREs
# Experiment: murine ESRE self-renewal supported by glucocorticoid
# Assay type: cell-based, mouse
# Conditions: as effectively as 10^−6M dexamethasone; preliminary studies
# Source text: Other reagents necessary for improving the efficiency with which self-renewing cultures can be derived from human ESCs can be tested. This includes alternate steroids, such as fluticasone proprionate, an extremely potent glucocorticoid agent; our preliminary studies of murine ESREs indicate that doses of fluticasone as low as 10^−9M support erythroblast self-renewal as effectively as 10^−6M dexamethasone. Various lipid additives, including Excyte (Millipore) and Human LDL (Stem Cell Technology) can also be test for to optimizing support human erythroblast self-renewal.
substance,measurement,value
fluticasone proprionate,dose that supports erythroblast self-renewal,≤ 10^−9 M
